{
  "source": "patent US20220395549A1",
  "about": "“COMPOSITIONS OF THE OLEA EUROPAEA V. SYLVESTRIS WITH ANTIMICROBIAL EFFICACY” (TAPROGGE GMBH, priority 2019, published 2022)",
  "test_system": "S. aureus ATCC 6538",
  "assay": "quantitative suspension assay of mono-substances",
  "format": "cell-based, Staphylococcus aureus",
  "conditions": "for Number of CFUs: initial cell load 9.9 × 10^4 CFU/ml",
  "method": "A stock solution was prepared by adding 0.1 ml methanol to 10.48 mg of hydroxytyrosol. After dissolving of the compound, the solution was quantitatively transferred into 4.9 ml water for injection (WFI), effective concentration of hydroxytyrosol: 2.0 mg/ml.\nUsing the stock solution, five (5) concentrations of hydroxytyrosol in a geometric series of 2 mg hydroxytyrosol/ml to 0.125 mg hydroxytyrosol/ml were tested in a quantitative suspension assay.\n2 ml of the stock solution and the dilutions (V1 to V4), respectively, and a methanol-solution of 2% as a positive control were inoculated with 0.1 ml of a test suspension of S. aureus ATCC 6538, adjusted to about 2.0×10^5 CFU/0.1 ml, resulting in about 100,000 CFU/ml in the individual assays.\nSamples (0.1 ml) were then taken at t 0, 12, 30, and 60 minutes as well as t 24 48, and 72 hours after inoculation and culturing at between 20-25° C., and were diluted with 0.9 ml of 0.9% NaCl solution. The samples were plated on blood agar plates, and incubated up to 5 days at between 30-35° C.\nA stock solution was prepared at a concentration of 2 mg/ml of oleocanthal. The compound was dissolved by in ethanol (99.8%) and WFI was added.\nUsing the stock solution, concentrations of oleocanthal in a geometric series of 1 mg oleocanthal/ml to 0.125 mg oleocanthal/ml were tested in a quantitative suspension assay.\n2 ml of the stock solution and the dilutions (V1 to V4), respectively, and a ethanol-solution of 2.85% as a positive control were inoculated with 0.055 ml of a test suspension of S. aureus ATCC 6538, adjusted to about 3.6×10^5 CFU/0.1 ml, resulting in about 99,000 CFU/ml in the individual assays.\nA stock solution was prepared at a concentration of 1 mg/ml of oleacin. The compound was dissolved by in ethanol (99.8%) and WFI was added.\nUsing the stock solution, concentrations of oleacin at 0.25 mg oleacin/ml and 0.125 mg oleacin/ml were tested in a quantitative suspension assay.\n2 ml of the stock solution and the dilutions (V1 and V2), respectively, and a ethanol-solution of 0.44% as a positive control were inoculated with 0.055 ml of a test suspension of S. aureus ATCC 6538, adjusted to about 3.5×10^5 CFU/0.1 ml, resulting in about 99,000 CFU/ml in the individual assays.\nA stock solution was prepared by adding 0.1 ml chloroform to 25 mg of uvaol. After dissolving of the compound, the solution was quantitatively transferred into 12.4 ml water for injection (WFI), effective concentration of uvaol: 2.0 mg/ml.\nUsing the stock solution, five (5) concentrations of uvaol in a geometric series of 2 mg uvaol/ml to 0.125 mg uvaol/ml were tested in a quantitative suspension assay.\n2 ml of the stock solution and the dilutions (V1 to V4), respectively, and a chloroform-solution of 0.8% as a positive control were inoculated with 0.1 ml of a test suspension of S. aureus ATCC 6538, adjusted to about 2.0×10^5 CFU/0.1 ml, resulting in about 100,000 CFU/ml in the individual assays.\nA stock solution was prepared by adding 0.1 ml chloroform to 10.45 mg of erythrodiol. After dissolving of the compound, the solution was quantitatively transferred into 4.9 ml water for injection (WFI), effective concentration of erythrodiol: 2.0 mg/ml.\n2 ml of the stock solution and the dilutions (V1 to V4), respectively, and a chloroform-solution of 2% as a positive control were inoculated with 0.1 ml of a test suspension of S. aureus ATCC 6538, adjusted to about 3.6×10^5 CFU/0.1 ml, resulting in about 100.000 CFU/ml in the individual assays.",
  "data": [
    {"smiles": "C/C=C(/C=O)[C@@H](CC=O)CC(=O)OCCc1ccc(O)cc1", "note": "[oleocanthal]", "values": [
      {"measurement": "Number of CFUs", "setting": "0.125 Ole/ml, t 0 min", "value": "2.0 × 10^4 CFU/ml"},
      {"measurement": "Number of CFUs", "setting": "0.125 Ole/ml, t 12 min", "value": "1.6 × 10^4 CFU/ml"},
      {"measurement": "Number of CFUs", "setting": "0.125 Ole/ml, t 30 min", "value": "1.6 × 10^4 CFU/ml"},
      {"measurement": "Number of CFUs", "setting": "0.125 Ole/ml, t 60 min", "value": "1.1 × 10^4 CFU/ml"},
      {"measurement": "Number of CFUs", "setting": "0.125 Ole/ml, t 24 h", "value": "5.4 × 10^3 CFU/ml"},
      {"measurement": "Number of CFUs", "setting": "0.125 Ole/ml, t 48 h", "value": "<100", "unit": "CFU/ml"},
      {"measurement": "Number of CFUs", "setting": "0.125 Ole/ml, t 72 h", "value": "<100", "unit": "CFU/ml"},
      {"measurement": "Number of CFUs", "setting": "0.25 Ole/ml, t 0 min", "value": "1.7 × 10^4 CFU/ml"},
      {"measurement": "Number of CFUs", "setting": "0.25 Ole/ml, t 12 min", "value": "1.8 × 10^4 CFU/ml"},
      {"measurement": "Number of CFUs", "setting": "0.25 Ole/ml, t 30 min", "value": "2.0 × 10^4 CFU/ml"},
      {"measurement": "Number of CFUs", "setting": "0.25 Ole/ml, t 60 min", "value": "1.6 × 10^4 CFU/ml"},
      {"measurement": "Number of CFUs", "setting": "0.25 Ole/ml, t 24 h", "value": "7.2 × 10^3 CFU/ml"},
      {"measurement": "Number of CFUs", "setting": "0.25 Ole/ml, t 48 h", "value": "8.3 × 10^3 CFU/ml"},
      {"measurement": "Number of CFUs", "setting": "0.25 Ole/ml, t 72 h", "value": "<100", "unit": "CFU/ml"},
      {"measurement": "Number of CFUs", "setting": "0.5 Ole/ml, t 0 min", "value": "8.3 × 10^3 CFU/ml"},
      {"measurement": "Number of CFUs", "setting": "0.5 Ole/ml, t 12 min", "value": "6.1 × 10^3 CFU/ml"},
      {"measurement": "Number of CFUs", "setting": "0.5 Ole/ml, t 30 min", "value": "5.1 × 10^3 CFU/ml"},
      {"measurement": "Number of CFUs", "setting": "0.5 Ole/ml, t 60 min", "value": "2.4 × 10^3 CFU/ml"},
      {"measurement": "Number of CFUs", "setting": "0.5 Ole/ml, t 24 h", "value": "<100", "unit": "CFU/ml"},
      {"measurement": "Number of CFUs", "setting": "0.5 Ole/ml, t 48 h", "value": "<100", "unit": "CFU/ml"},
      {"measurement": "Number of CFUs", "setting": "0.5 Ole/ml, t 72 h", "value": "<100", "unit": "CFU/ml"},
      {"measurement": "Number of CFUs", "setting": "1.0 Ole/ml, t 0 min", "value": "<100", "unit": "CFU/ml"},
      {"measurement": "Number of CFUs", "setting": "1.0 Ole/ml, t 12 min", "value": "<100", "unit": "CFU/ml"},
      {"measurement": "Number of CFUs", "setting": "1.0 Ole/ml, t 30 min", "value": "<100", "unit": "CFU/ml"},
      {"measurement": "Number of CFUs", "setting": "1.0 Ole/ml, t 60 min", "value": "<100", "unit": "CFU/ml"},
      {"measurement": "Number of CFUs", "setting": "1.0 Ole/ml, t 24 h", "value": "<100", "unit": "CFU/ml"},
      {"measurement": "Number of CFUs", "setting": "1.0 Ole/ml, t 48 h", "value": "<100", "unit": "CFU/ml"},
      {"measurement": "Number of CFUs", "setting": "1.0 Ole/ml, t 72 h", "value": "<100", "unit": "CFU/ml"},
      {"measurement": "Number of CFUs", "setting": "2.0 Ole/ml, t 0 min", "value": "<100", "unit": "CFU/ml"},
      {"measurement": "Number of CFUs", "setting": "2.0 Ole/ml, t 12 min", "value": "<100", "unit": "CFU/ml"},
      {"measurement": "Number of CFUs", "setting": "2.0 Ole/ml, t 30 min", "value": "<100", "unit": "CFU/ml"},
      {"measurement": "Number of CFUs", "setting": "2.0 Ole/ml, t 60 min", "value": "<100", "unit": "CFU/ml"},
      {"measurement": "Number of CFUs", "setting": "2.0 Ole/ml, t 24 h", "value": "<100", "unit": "CFU/ml"},
      {"measurement": "Number of CFUs", "setting": "2.0 Ole/ml, t 48 h", "value": "<100", "unit": "CFU/ml"},
      {"measurement": "Number of CFUs", "setting": "2.0 Ole/ml, t 72 h", "value": "<100", "unit": "CFU/ml"},
      {"measurement": "antimicrobial effect, summary in words", "setting": "detection limit of the assay 100 CFU/ml", "value": "immediate effect at the higher concentrations"}
    ]}
  ]
}
